# Source: ChEMBL document CHEMBL4000217, “Structure-activity relationship of daptomycin analogues with substitution at (2S, 3R) 3-methyl glutamic acid position” (2017)
# System: Staphylococcus aureus
# Assay: Antibacterial activity against Staphylococcus aureus isolate 42 […] by CLSI method
# Format: functional
row,SMILES,MIC
1,CCCCCCCCCC(=O)N[C@@H](Cc1c[nH]c2ccccc12)C(=O)N[C@@H](CC(N)=O)C(=O)N[C@@H](CC(=O)O)C(=O)N[C@@H]1C(=O)NCC(=O)N[C@@H](CCCN)C(=O)N[C@@H](CC(=O)O)C(=O)N[C@H](C)C(=O)N[C@@H](CC(=O)O)C(=O)NCC(=O)N[C@H](CO)C(=O)N[C@@H]([C@H](CC)CC(=O)O)C(=O)N[C@@H](CC(=O)c2ccccc2N)C(=O)O[C@@H]1C,8 µg/mL
2,CCCCCCCCCC(=O)N[C@@H](Cc1c[nH]c2ccccc12)C(=O)N[C@H](CC(N)=O)C(=O)N[C@@H](CC(=O)O)C(=O)N[C@@H]1C(=O)NCC(=O)N[C@@H](CCCN)C(=O)N[C@@H](CC(=O)O)C(=O)N[C@H](C)C(=O)N[C@@H](CC(=O)O)C(=O)NCC(=O)N[C@H](CO)C(=O)N[C@@H]([C@H](C)CC(=O)O)C(=O)N[C@@H](CC(=O)c2ccccc2N)C(=O)O[C@@H]1C,0.5 µg/mL
3,CCCCCCCCCC(=O)N[C@@H](Cc1c[nH]c2ccccc12)C(=O)N[C@@H](CC(N)=O)C(=O)N[C@@H](CC(=O)O)C(=O)N[C@@H]1C(=O)NCC(=O)N[C@@H](CCCN)C(=O)N[C@@H](CC(=O)O)C(=O)N[C@H](C)C(=O)N[C@@H](CC(=O)O)C(=O)NCC(=O)N[C@H](CO)C(=O)N[C@@H]([C@H](C)CC(N)=O)C(=O)N[C@@H](CC(=O)c2ccccc2N)C(=O)O[C@@H]1C,32 µg/mL
4,"CCCCCCCCCC(=O)N[C@@H](Cc1c[nH]c2ccccc12)C(=O)N[C@@H](CC(N)=O)C(=O)N[C@@H](CC(=O)O)C(=O)N[C@@H]1C(=O)NCC(=O)N[C@@H](CCCN)C(=O)N[C@@H](CC(=O)O)C(=O)N[C@H](C)C(=O)N[C@@H](CC(=O)O)C(=O)NCC(=O)N[C@H](CO)C(=O)N[C@@H](C(C)CC(=O)O)C(=O)N[C@@H](CC(=O)c2ccccc2N)C(=O)O[C@@H]1C (single isomer, unassigned) [DAPTOMYCIN]",128 µg/mL
5,CCCCCCCCCC(=O)N[C@@H](Cc1c[nH]c2ccccc12)C(=O)N[C@@H](CC(N)=O)C(=O)N[C@@H](CC(=O)O)C(=O)N[C@@H]1C(=O)NCC(=O)N[C@@H](CCCN)C(=O)N[C@@H](CC(=O)O)C(=O)N[C@H](C)C(=O)N[C@@H](CC(=O)O)C(=O)NCC(=O)N[C@H](CO)C(=O)N[C@@H](C(C)(C)CC(=O)O)C(=O)N[C@@H](CC(=O)c2ccccc2N)C(=O)O[C@@H]1C,64 µg/mL
